The values below come from patent US20250206732A1, “COMPOUNDS AND METHODS FOR THE TARGETED DEGRADATION OF KRAS” (Arvinas Operations, Inc., priority 2022, published 2025).

For one experiment, the target named is T1, AsPC-1 HiBiT-KRASG12D (Homo sapiens, UniProt P01116, G12D).
T1 construct: insert the HiBiT tag onto the N-terminus of one or more of the endogenous KRAS alleles; endogenous in cells; host or cells: AsPC-1 (ATCC CRL-1682), CRISPR-Cas9 knock-in clone, one tagged allele
As to the kind of experiment: HiBiT degradation assay (G12D), AsPC-1 HiBiT-KRASG12D cells. It counts as cell-based. Particulars: 24 hours treatment; for Dmax: ASPC1, AsPC-1 HiBiT-KRASG12D cells, maximum degradation observed; for DC50: AsPC-1 HiBiT-KRASG12D cells, HiBiT luminescence. An outline of the steps: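 Steps: treat HiBiT-KRASG12D AsPC-1 cells with compound for 24 hours; add alamar blue to 1× and incubate 4 hours to assess viability; wash with PBS; add HiBiT lytic detection reagent, incubate 45 minutes at room temperature; read luminescence. Viability fluorescence is normalized to DMSO wells.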

The target of a further experiment is T2, SW1573 HiBiT-KRASG12C (Homo sapiens, UniProt P01116, G12C).
T2 construct: expressed in transfected cells
T2 sequence (P01116 1-188 isoform P01116-2 G12C): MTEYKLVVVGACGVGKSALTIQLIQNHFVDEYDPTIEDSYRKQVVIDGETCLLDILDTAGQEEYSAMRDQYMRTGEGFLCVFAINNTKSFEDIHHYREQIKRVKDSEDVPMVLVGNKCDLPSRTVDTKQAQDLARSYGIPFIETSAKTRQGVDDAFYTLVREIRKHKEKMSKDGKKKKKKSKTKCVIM
As to the kind of experiment: HiBiT degradation assay (G12C), SW1573 HiBiT-KRASG12C cells.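 On DC50: Letter grades: C is 1000 to 3000 nM and D is above 3000 nM.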 It is filed as cell-based. Particulars: 24 hours treatment; for DC50: HiBiT luminescence. As to the method:
Reagents. SW1573 (CRL-2170), AsPC-1 (CRL-1682), and SW620 (CCL-227) cells were purchased from ATCC. SW1573 cells are homozygous for the G12C mutation in KRAS, AsPC-1 cells are homozygous for the G12D mutation, and SW620 cells are homozygous for the G12V mutation. SW1573 cells were cultured in DMEM+F12+Glutamax (+Sodium Bicarbonate, +sodium pyruvate, ThermoFisher scientific, #10565) supplemented with 10% FBS (ThermoFisher scientific, #2060357) and 1% Antibiotic-Antimycotic (ThermoFisher scientific, #15240096). AsPC-1 cells were cultured in GIBCO RPMI-1640 (ThermoFisher scientific, catalog #61870-036 with Glutamax, No HEPES, No Na Pyruvate) supplemented with 10% FBS (ThermoFisher scientific, catalog #2060357) and 1× Penicillin-Streptomycin (ThermoFisher scientific, catalog #15140122, 10000 U/ml, 100×). SW620 cells were cultured in DMEM Glutamax (ThermoFisher scientific, catalog #10566016) supplemented with 10% FBS (ThermoFisher scientific, catalog #2060357) and 1× Penicillin-Streptomycin (ThermoFisher scientific, catalog #15140122, 10000 U/ml, 100×). For degradation assays, 384 well plates were used. Alamar blue was purchased from ThermoFisher scientific (A50101) and used according to manufacturer instructions. The Nano-Glo® HiBiT Lytic Detection System and Nano-Glo® HiBiT Blotting System were purchased from Promega (#N3050 and #N2410) and used according to manufacturer instructions.
HiBiT-tagged cell line generation. To create the SW1573 HiBiT-KRASG12C cell line, the nucleotide sequence encoding the 11 amino acid HiBiT tag from Promegal was appended to the N-terminus of the KRASG12C coding sequence. This synthesized DNA was cloned into a modified pcDNA3.1 vector under the control of the thymidine kinase (TK) promoter. This HiBiT-KRASG12C expressing plasmid was transfected into parental SW1573 cells and colonies were selected using 400 μg/mL zeocin. The resulting clonal lines were screened for expression of HiBiT-KRASG12C protein using Nano-Glo® HiBiT Blotting System. A luminescent band of the correct size for HiBiT-KRASG12C was detected in several clones. Clone E6 was selected for further studies.
HiBiT degradation assays (G12C and G12D). Either SW1573 HiBiT-KRasG12C or AsPC-1 HiBiT-KRasG12D cells were plated at 9000 or 15,000 cells/well in a 384 well plate (Corning #3770). Compounds of the present disclosure and positive controls were diluted in the appropriate cell media and applied to the plated cells resulting in a final concentration titration of 10 μM to 508 pM in 0.5% DMSO. Gambogic acid was used as a positive control for cytotoxicity and titrated from 10 μM to 78 nM. All assays were performed in triplicate. Cells were treated with compounds for 24 hours at 37° C. in an incubator containing 5% CO2. Following treatment, alamar blue was used to determine if any compounds led to a loss in cell viability after 24 hours. The 10× alamar blue reagent was added to a final concentration of 1× as recommended by the manufacturer and cells were returned to the incubator for 4 hours. Plates were then allowed to equilibrate to room temperature and fluorescence was measured using a Perkin-Elmer EnVision. After completion of the fluorescence read, the liquid from each well was removed and the cells were washed with PBS. The Nano-Glo® HiBiT detection reagent was prepared according to the manufacturer's instructions and added to each well after the PBS wash was removed. Following incubation at room temperature for 45 minutes, the luminescence was read using the ultra-sensitive luminescence aperture on the Envision instrument.
Data analysis. Fluorescence values from the alamar blue treatment were normalized to the DMSO-only control for each compound titration. […]

T1 sequence (P01116 1-188 isoform P01116-2 G12D): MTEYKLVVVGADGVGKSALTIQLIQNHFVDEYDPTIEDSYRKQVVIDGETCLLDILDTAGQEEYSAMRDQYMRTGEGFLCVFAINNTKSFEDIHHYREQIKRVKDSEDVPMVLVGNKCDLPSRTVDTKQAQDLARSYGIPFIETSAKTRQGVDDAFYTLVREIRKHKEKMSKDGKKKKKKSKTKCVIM

Compound `CCc1cccc2cc(O)cc(-c3ncc4c(N5CC6CCC(C5)N6)nc(OCCN5CCC(COC6(C(=O)N[C@H](C(=O)N7C[C@H](O)C[C@H]7C(=O)N[C@@H](C)c7ccc(-c8scnc8C)cc7)C(C)(C)C)CC6)CC5)nc4c3F)c12` [Compound 9, (2S,4R)-1-[(2S)-2-[[1-[[1-[2-[4-(3,8-diazabicyclo[3.2.1]octan-3-yl)-7-(8-ethyl-3-hydroxy-1-naphthyl)-8-fluoro-pyrido[4,3-d]pyrimidin-2-yl]oxyethyl]-4-piperidyl]methoxy]cyclopropanecarbonyl]amino]-3,3-dimethyl-butanoyl]-4-hydroxy-N-[(1S)-1-[4-(4-methylthiazol-5-yl)phenyl]ethyl]pyrrolidine-2-carboxamide] gave a Dmax at AsPC-1 HiBiT-KRASG12D of 80 to 100%. Further, the DC50 at AsPC-1 HiBiT-KRASG12D was under 0.6 µM; on SW1573 HiBiT-KRASG12C, over 3 µM.

With `CCc1cccc2cc(O)cc(-c3ncc4c(N5CC6CCC(C5)N6)nc(OCCN5CCC(COCC(=O)N[C@H](C(=O)N6C[C@@H](O)C[C@H]6C(=O)N[C@@H](C)c6ccc(-c7scnc7C)cc6)C(C)(C)C)CC5)nc4c3F)c12` [Compound 10, (2S,4S)-1-[(2S)-2-[[2-[[1-[2-[4-(3,8-diazabicyclo[3.2.1]octan-3-yl)-7-(8-ethyl-3-hydroxy-1-naphthyl)-8-fluoro-pyrido[4,3-d]pyrimidin-2-yl]oxyethyl]-4-piperidyl]methoxy]acetyl]amino]-3,3-dimethyl-butanoyl]-4-hydroxy-N-[(1S)-1-[4-(4-methylthiazol-5-yl)phenyl]ethyl]pyrrolidine-2-carboxamide], the 50% degradation concentration (DC50) at AsPC-1 HiBiT-KRASG12D and at SW1573 HiBiT-KRASG12C was over 3 µM each time.

For `CCc1cccc2cc(O)cc(-c3ncc4c(N5CC6CCC(C5)N6)nc(OCCN5CCC(OCCOCC(=O)N[C@H](C(=O)N6C[C@H](O)C[C@H]6C(=O)N[C@@H](C)c6ccc(-c7scnc7C)cc6)C(C)(C)C)CC5)nc4c3F)c12` [Compound 11], at AsPC-1 HiBiT-KRASG12D, the Dmax is 60 to 80% and the DC50 lay in the range of 1 to 3 µM. Moreover, the 50% degradation concentration (DC50) on SW1573 HiBiT-KRASG12C is over 3 µM.

For the compound `CCc1cccc2cc(O)cc(-c3ncc4c(N5CC6CCC(C5)N6)nc(OCCN5CCC(OCC(=O)N[C@H](C(=O)N6C[C@H](O)C[C@H]6C(=O)N[C@@H](C)c6ccc(-c7scnc7C)cc6)C(C)(C)C)CC5)nc4c3F)c12` [Compound 12, (2S,4R)-1-[(2S)-2-[[2-[[1-[2-[4-(3,8-diazabicyclo[3.2.1]octan-3-yl)-7-(8-ethyl-3-hydroxy-1-naphthyl)-8-fluoro-pyrido[4,3-d]pyrimidin-2-yl]oxyethyl]-4-piperidyl]oxy]acetyl]amino]-3,3-dimethyl-butanoyl]-4-hydroxy-N-[(1S)-1-[4-(4-methylthiazol-5-yl)phenyl]ethyl]pyrrolidine-2-carboxamide], at AsPC-1 HiBiT-KRASG12D, the maximal degradation (Dmax) lay within 80 to 100% and the 50% degradation concentration (DC50) was 1 to 3 µM. On SW1573 HiBiT-KRASG12C, this compound registered a DC50 of over 3 µM.

As to `CCc1cccc2cc(O)cc(-c3ncc4c(N5CC6CCC(C5)N6)nc(OCCN5CCC(CCOCC(=O)N[C@H](C(=O)N6C[C@H](O)C[C@H]6C(=O)N[C@@H](C)c6ccc(-c7scnc7C)cc6)C(C)(C)C)CC5)nc4c3F)c12` [Compound 13], on AsPC-1 HiBiT-KRASG12D, the Dmax fell in the range of 80 to 100% and the DC50 was in the range of 0.6 to 1 µM. Further, the half-maximal degradation concentration (DC50) at SW1573 HiBiT-KRASG12C was over 3 µM.

Compound `CCc1cccc2cc(O)cc(-c3ncc4c(N5CC6CCC(C5)N6)nc(OCCN5CCC6(CC5)CN(c5cc([C@@H](C(=O)N7C[C@H](O)C[C@H]7C(=O)N[C@@H](C)c7ccc(-c8scnc8C)cc7)C(C)C)on5)C6)nc4c3F)c12` [Compound 15, (2S,4R)-1-[(2S)-2-[3-[7-[2-[4-(3,8-diazabicyclo[3.2.1]octan-3-yl)-7-(8-ethyl-3-hydroxy-1-naphthyl)-8-fluoro-pyrido[4,3-d]pyrimidin-2-yl]oxyethyl]-2,7-diazaspiro[3.5]nonan-2-yl]isoxazol-5-yl]-3-methyl-butanoyl]-4-hydroxy-N-[(1S)-1-[4-(4-methylthiazol-5-yl)phenyl]ethyl]pyrrolidine-2-carboxamide] returned a Dmax on AsPC-1 HiBiT-KRASG12D of 20 to 60%. Further, the figures for the DC50 on AsPC-1 HiBiT-KRASG12D and on SW1573 HiBiT-KRASG12C were 1 to 3 µM and over 3 µM, respectively.

Regarding `CCc1cccc2cc(O)cc(-c3ncc4c(N5CC6CCC(C5)N6)nc(OCCN5CCC6(CC5)CN(c5cc([C@H](C(=O)N7C[C@H](O)C[C@H]7C(=O)N[C@@H](C)c7ccc(-c8scnc8C)cc7)C(C)C)on5)C6)nc4c3F)c12` [Compound 16, (2S,4R)-1-[(2R)-2-[3-[7-[2-[4-(3,8-diazabicyclo[3.2.1]octan-3-yl)-7-(8-ethyl-3-hydroxy-1-naphthyl)-8-fluoro-pyrido[4,3-d]pyrimidin-2-yl]oxyethyl]-2,7-diazaspiro[3.5]nonan-2-yl]isoxazol-5-yl]-3-methyl-butanoyl]-4-hydroxy-N-[(1S)-1-[4-(4-methylthiazol-5-yl)phenyl]ethyl]pyrrolidine-2-carboxamide], on AsPC-1 HiBiT-KRASG12D, the Dmax lay in the range of 80 to 100% and the half-maximal degradation concentration (DC50) is under 0.6 µM. The compound also came in with a 50% degradation concentration (DC50) on SW1573 HiBiT-KRASG12C of over 3 µM.

With `C#Cc1cccc2cc(O)cc(-c3ncc4c(N5CC6CCC(C6)C5)nc(OCCN5CCC(COCC(=O)N[C@H](C(=O)N6C[C@H](O)C[C@H]6C(=O)N[C@@H](C)c6ccc(-c7scnc7C)cc6)C(C)(C)C)CC5)nc4c3F)c12` [Compound 17, (2S,4R)-1-[(2S)-2-[[2-[[1-[2-[4-(3-azabicyclo[3.2.1]octan-3-yl)-7-(8-ethynyl-3-hydroxy-1-naphthyl)-8-fluoro-pyrido[4,3-d]pyrimidin-2-yl]oxyethyl]-4-piperidyl]methoxy]acetyl]amino]-3,3-dimethyl-butanoyl]-4-hydroxy-N-[(1S)-1-[4-(4-methylthiazol-5-yl)phenyl]ethyl]pyrrolidine-2-carboxamide], the 50% degradation concentration (DC50) at AsPC-1 HiBiT-KRASG12D is over 3 µM; at SW1573 HiBiT-KRASG12C, 1 to 3 µM. The compound further yielded a Dmax on SW1573 HiBiT-KRASG12C (maximum degradation observed) of 20 to 60%.

As to `C#Cc1cccc2cc(O)cc(-c3ncc4c(N5CC6CCC(C6)C5)nc(OCCN5CCC(COc6cc([C@H](C(=O)N7C[C@H](O)C[C@H]7C(=O)N[C@@H](C)c7ccc(-c8scnc8C)cc7)C(C)C)on6)CC5)nc4c3F)c12` [Compound 18, (2S,4R)-1-[(2R)-2-[3-[[1-[2-[4-(3-azabicyclo[3.2.1]octan-3-yl)-7-(8-ethynyl-3-hydroxy-1-naphthyl)-8-fluoro-pyrido[4,3-d]pyrimidin-2-yl]oxyethyl]-4-piperidyl]methoxy]isoxazol-5-yl]-3-methyl-butanoyl]-4-hydroxy-N-[(1S)-1-[4-(4-methylthiazol-5-yl)phenyl]ethyl]pyrrolidine-2-carboxamide], the half-maximal degradation concentration (DC50) at AsPC-1 HiBiT-KRASG12D and at SW1573 HiBiT-KRASG12C was over 3 µM throughout.
